# Assay results from article PMC10025185, “A continuous in silico learning strategy to identify safety liabilities in compounds used in the leather and textile industry” (Archives of Toxicology, 2023).
# Like-named read-outs stand apart in the source and are kept apart here.
# Legend:
# [1] = tested on: androgen and oestrogen receptors; assay: ED assays of androgen and oestrogen receptors (overall experimental ED result); assay type: cell-based
# Method: The transcriptional activation of androgen receptor (AR) assays was carried out by adapting the OECD protocol 458 (OECD [2020]).
# MDA-MB-453 cells (8000 cells/well) expressing an AR luciferase reporter were seeded into 384 white plates (Greiner 781098) in culture medium (DMEM (ATCC), 10% foetal bovine serum (Sigma Aldrich), 1% penicillin–streptomycin (Sigma-Aldrich), 75 µg/ml geneticin (Gibco) and incubated overnight at 37 °C 5% CO2 and 95% humidity. After this time, the cell culture medium was discarded and replaced by assay medium (DMEM (ATCC), 0.1% foetal bovine serum (Sigma-Aldrich), and 1% penicillin–streptomycin (Sigma Aldrich)).
# For studying a putative agonist effect, compounds were added to the assay plate using an Echo 550 acoustic liquid handler and incubated overnight at 37 °C 5% CO2 and 95% humidity. For studying the putative antagonist effect, compounds were added using an Echo 550 acoustic liquid handler and incubated for 15 min at 37 °C 5% CO2 and 95% humidity. Then, 1 nM 5α-dihydrotestosterone (DHT) was added, and the cell plate was incubated overnight at 37 °C, 5% CO2, and 95% humidity. After compound incubation, the cell medium was removed, 5 µl of lysis buffer 1X (Promega) was added, and the cell plate was incubated with agitation 15 min at room temperature. A freeze–thaw cycle of 10 min at −80 °C and room temperature was performed. Then 25 µl of luciferase assay reagent (Promega) was added and luminescence was determined on an EnSpire plate reader (Perkin Elmer). Data was fitted to a four-parameter sigmoidal model with Prism 5.1 (Graphpad, Inc).
# The transcriptional activation of oestrogen receptor (ER) assay was carried out by adapting the OECD protocol 455 (OECD [2021]) and the method of Li et al. ([2013]).
# ER luciferase reporter T47D cells (5000 cells/well) were seeded into 384 white plates (Greiner 781098) in culture medium (RPMI 1640 (Thermo Fisher Scientific 52400), 10% foetal bovine serum (Sigma Aldrich F9665), 1% penicillin–streptomycin (Sigma-Aldrich P0781), 75 µg/ml Geneticin (Gibco 10131)) and incubated overnight at 37 °C and 5% CO2. The following day, the cell culture medium was discarded and replaced by assay medium (RPMI 1640 (Thermo Fisher Scientific 52,400), 0.1% foetal bovine serum (Sigma Aldrich F9665), and 1% penicillin–streptomycin (Sigma Aldrich P0781).
# The assay was performed as stated before for the AR assay using 17β-estradiol as agonist instead of DHT.
# ED was assessed by transactivation in vitro assays to identify agonists and antagonists of the androgen and oestrogen receptors.
# Also, the experimental group analysed the endocrine-disrupting activity for the CMR compounds.
# [2] = tested on: CHO-K1 (Chinese hamster ovary cells); assay type: cell-based
# Method: The in vitro micronucleus test is a genotoxicity test for the detection of micronuclei in the cytoplasm of interphase cells. Tests were conducted in the presence of the cytokinesis blocker cytochalasin B with three different treatment schedules: (i) short treatment for 6 h; (ii) short treatment for 6 h in the presence of an exogenous source of metabolic activation (cofactor supplemented S9 liver fraction); and (iii) extended treatment for 24 h.
# CHO-K1 (Chinese hamster ovary cells, ATCC Item Number CCL-61) were cultured in DMEM F-12 containing 10% foetal bovine serum and 100 units/ml penicillin/100 μg/ml streptomycin (all from Sigma-Aldrich, St Louis, USA). Cells were seeded at 3000 cells/well in a collagen-coated 96-well plate in 100 μl. After 24 h, cells were incubated with CellTracker Orange CMTMR cellular dye solution (Invitrogen, Waltham, USA) for 1 h. Cells were then treated with compounds for 6 h, with or without S9 metabolic activation, or 24 h without S9 metabolic activation. […] After the 6-h compound treatment, cells were incubated with cytochalasin B (Alfa Aesar, Kandel, Germany) for 24 h. In case of 24-h treatment, cells were incubated with compounds in the presence of cytochalasin B and harvested after treatment. Benzo(a)pyrene, mitomycin C, and colchicine were used as positive controls for 6 h, with or without metabolic activation or 24 h treatments, respectively. […] After several washes with BupH-modified DPBS, cells were analysed in an Operetta High-Content Imaging System (PerkinElmer, Waltham, USA). […] Statistical significance was determined with the ANOVA test with significance level adjusted to p < 0.05.
# zebrafish embryos [3] = settings: in vivo
# Method: (§1) Zebrafish embryos obtained and maintained as described previously for toxicity determination were used to determine (I) terato-carcinogenesis assayed as previously informed (Selderslaghs et al. [2009], [2012]) with modifications. In brief, embryos were incubated for 0 hpf up to 120 hpf in the presence and absence of tested compounds. Each condition was assayed in triplicate with 12 embryos per condition per replicate. The appearance of selected characteristics and malformations with respect to normal development were quantified for the eyes, otoliths, heart, circulation, hatching, skeletal deformities, and body position. For each concentration tested, we assessed the mortality and the presence of malformations at 24, 48, 72, 96, and 120 hpf using a light microscope. When possible, the lethal effects (LC50) and terato-carcinogenic effects (EC50) were determined using the ToxRat software. Based on these values, a teratogenic index (TI) was calculated as LC50/EC50. Based on previous studies, we considered a compound to be a teratogen when TI > 2 at 120 hpf. When no TI could be calculated due to no malformations induction to a degree extensive enough to calculate the EC50 in the presence of high toxicity, the compound was considered a non-teratogen. (II) Neurotoxicity was assayed by evaluating the locomotor activity in embryos exposed to the tested compounds from 0 to 120 hpf using Zebrabox and Zebralab (ViewPoint). We tested three concentrations (24 embryos per concentration) below the NOEC to avoid readily toxic concentrations. After incubation with tested compounds for 120 hs in 96-well plates, the activity of larvae in response to transitions from dark to light was evaluated. The protocol involved an initial 10 min acclimation period inside the Zebrabox, followed by three cycles of light–dark of 10 min each. After the end of each cycle, the integrated activity of each embryo was registered. Statistical analysis was done using ANOVA, followed by the Tukey post hoc test. Differences were considered significant when p < 0.05. Dead embryos were not considered in the analysis. (III) The endocrine-disrupting effect in zebrafish embryos was assayed by real-time PCR as previously reported (Jarque et al. [2019]) with modifications. In brief, 0 hpf embryos (12 embryos per condition in triplicate) were incubated with selected compounds for up to 120 hpf. After incubation, treated (embryos incubated at the concentration right below the NOEC) and control embryos were collected in RNA later and kept at − 20°C until use. RNA was extracted from the samples using the RNeasy Mini Kit (QIAGEN) and was followed by cDNA synthesis using random primers and the AffinityScript Multi Temperature cDNA Synthesis Kit (Agilent Technologies). Finally, real-time PCR was performed for eight target genes to obtain data on the estrogenic (cytochrome P450 family 19 subfamily A member 1: cyp19a1b, and vitellogenin: vtg1), androgenic (cytochrome P450 family 2 subfamily W member 1: cyp2k22, and cytosolic sulphotransferase 3: sult2st3), and thyroid hormone (thyroid peroxidase: tpo, thyroid hormone receptor alpha: tra, transthyretin: ttr, and iodothyronine deiodinase 2: dio2) effect of the tested compounds. Significant changes in gene expression between controls and treated samples were considered as a potential endocrine-disrupting effect.
# zebrafish embryos [4] = settings: in vivo; remark: listed apart in the source
# Excerpt: In REACH, most of the mammalian tests for chemical safety assessment are related to reproductive toxicity (ECHA [2020]; Rovida and Hartung [2009]; Sellick [2011]) and consider complex molecular and cellular mechanisms determined in long-term experiments with very low throughput. To avoid the use of animals and to assay reproductive toxicity in a relevant 'non-animal' model adhering to the 3Rs rule, we used zebrafish embryos up to 120 hpf. Up to this developmental stage, the embryos are not considered animals according to European legislation (Sellick [2011]). When they reach the stage of independent feeding, zebrafish embryos become subject to regulations for animal experimentation. We performed a set of previously described experiments to cover a wide range of potential reprotoxic effects, including terato-carcinogenesis, developmental neurotoxicity, and endocrine disruption.
# as §1, with “Technologies).” for “Technologies). Finally, real-time PCR was performed for eight target genes to obtain data on the estrogenic (cytochrome P450 family 19 subfamily A member 1: cyp19a1b, and vitellogenin: vtg1), androgenic (cytochrome P450 family 2 subfamily W member 1: cyp2k22, and cytosolic sulphotransferase 3: sult2st3), and thyroid hormone (thyroid peroxidase: tpo, thyroid hormone receptor alpha: tra, transthyretin: ttr, and iodothyronine deiodinase 2: dio2) effect of the tested compounds. Significant changes in gene expression between controls and treated samples were considered as a potential endocrine-disrupting effect.”
# [5] = design: method as in earlier work; settings: ref https://comptox.epa.gov/dashboard, https://echa.europa.eu/es/information-on-chemicals, cited from earlier work
# [6] = logKow as a measure of bioaccumulation, extracted from public databases; assay type: physicochemical; settings: yes/no by logKow, REACH cut off 4,5
# Bhas 42 cell line = assay: Bhas 42 cell transformation assay (carcinogenesis); assay type: cell-based
# Method: This assay was carried out by adapting the in vitro Bhas 42 cell transformation assay method described in the OECD Guidance Document No. 231 ([2017]) based on the work of Sasaki et al. ([2014]).
# It consists of two assays with a different test compound addition schedule to identify compounds with initiating activity (tumour initiators) or promoting activity (tumour promoters). Previously, a cell growth assay for 7 days is performed to set the assay doses of the CTA and another cell growth assay is concurrently performed to the CTA to verify that the selected doses meet the acceptance criteria for the tests.
# The carcinogenesis potential of the compound was assayed by means of measuring the frequency of transformed foci (morphologically altered cells that form discrete anchorage-independent colonies) in the Bhas 42 cell line, which can be extrapolated to an assessment of carcinogenic potential. In the transformation assay, the incubation of compounds with two different treatment schedules allowed to identify the initiating or promoting carcinogenic potential of the compounds.
compound,measurement,setting,value
"Cc1cc(N)ccc1N.O=S(=O)(O)O [2,5-Diaminotoluene sulphate]",Experimental result,[1],No
CC(Cl)C(=O)c1ccc(Cl)cc1 (centres unmarked) [2-Chloro-1-(4-chlorophenyl)propan-1-one],Micronucleus assay (M),"[2]; 6 h with or without S9, 24 h without S9",Negative
C=Cc1ccccn1 [2-Ethenylpyridine],Experimental result,[1],Yes
CC1=CC(=O)[C@@H](C(C)C)CC1 [(R)-6-(isopropyl)-3-methylcyclohex-2-en-1-one],Micronucleus assay (M),[2],Negative
same,Reprotoxicity (R) Endocrine disruptor,zebrafish embryos [3],No
same,reduction of embryo integrated activity,zebrafish embryos [3],up to 80%
same,Reprotoxicity (R) Teratogen,zebrafish embryos [4],No
"CC(C)[C@H]1CC[C@H](C)C[C@@H]1O [Cyclohexanol, 5-methyl-2-(1-methylethyl)-, (1S,2R,5S)-]",Experimental result,[1],No
C=C(C)C(=O)O [Methacrylic acid],Bioaccumulation (logKow),[5]; experimental value,0.93
same,Bioaccumulation,[6],No
COC(=O)C=Cc1ccccc1 [Methyl cinnamate],Bioaccumulation (logKow),[5]; experimental value,2.62
same,Bioaccumulation,[6],No
CCCCCC1C(=O)CCC1CC(=O)OC (centres unmarked) [Methyl dihydrojasmonate],Experimental result,[1],Yes
CCNC(N)=O [N-Ethylurea],Bioaccumulation (logKow),[5]; experimental value,-0.74
same,Bioaccumulation,[6],No
C=CC(=O)NC(C)C [N-Isopropylacrylamide],Bioaccumulation (logKow),[5]; predicted value,0.41
same,Bioaccumulation,[6],No
O=[N+]([O-])c1ccccc1 [Nitrobenzene],Bioaccumulation (logKow),[5]; experimental value,1.85
same,Bioaccumulation,[6],No
c1ccc2c(c1)ccc1ccccc12 [Phenanthrene],Experimental result,[1],Yes
O=[PH](O)O [Phosphonic acid],Carcinogen (C),Bhas 42 cell line,No
same,Experimental result,[1],No
C#CCBr [Propargyl bromide],Experimental result,[1]; endocrine disruptor yes/no,Yes
